Laboratory results published in publication PMC11500415, “Chemical inhibition of stomatal differentiation by perturbation of the master-regulatory bHLH heterodimer via an ACT-Like domain” (Nature Communications, 2024).
Where “and” joins values, the source holds several entries; their conditions need not be identical. Identical values can stand only once. Entries after “also recorded” stand apart in the source; their conditions may differ.

Key:
SCRM-MUTE heterodimer = target: T1, SCRM-MUTE heterodimer (Arabidopsis thaliana, UniProt Q9M8K6); test: Ratiometric BiFC in N. benthamiana leaves; type: cell-based; settings: 100 μM, 1 day
T1 construct: expressed in transfected cells; host or cells: yeast strain AH109
T1 sequence (Q9M8K6 1-202): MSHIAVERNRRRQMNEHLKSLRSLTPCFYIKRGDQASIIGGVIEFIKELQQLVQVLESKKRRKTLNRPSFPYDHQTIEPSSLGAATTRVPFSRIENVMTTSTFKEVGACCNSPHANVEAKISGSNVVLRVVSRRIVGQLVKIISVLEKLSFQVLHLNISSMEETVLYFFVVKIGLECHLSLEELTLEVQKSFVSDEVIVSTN
Text: For ratiometric BiFC assays, the cDNAs of SPCH, MUTE, and FAMA were cloned into the 35S CaMV promoter-driven destination vector pSPYNE, which contains the N terminus of the EYFP protein (nYFP-174 amino acids), while the cDNA of SCRM and SCRM2 was inserted into pSPYCE, which contains the C terminus of the EYFP protein (cYFP-64 amino acids) (see Supplementary Table 5 for detailed information of the constructs). The constructs were then transformed into Agrobacterium tumefaciens strain GV3101. The Agrobacterium was resuspended in infiltration buffer (10 mM MgCl2, 10 mM 2-(N-morpholino)ethanesulfonic acid [pH 5.6], and 150 µM acetosyringone). Bacterial culture densities were adjusted to a final optical density (OD600) of 1.0, and the cell suspensions were incubated at room temperature for 4 hours prior to infiltration. Equal volumes of cultures carrying the corresponding complementary pair of BiFC constructs (YFPn and YFPc), along with CaMV35S::Histone H2B-mScarlet-I3 and the silencing suppressor plasmid p19 (a gift from Dr. Sir David Baulcombe) were mixed and then co-infiltrated into 4-week-old N. benthamiana leaves. The infiltrated N. benthamiana leaves were incubated at 25 °C for 2 days. Subsequently, leaf discs were cut out and cultured in mock or in liquid 1/2 MS media in mock (DMSO) or 100 µM Stomidazolone for 1 day. Confocal imaging of N. benthamiana leaves was performed using a Leica SP8 confocal microscope using a 20X objective lens (Leica Microsystems), simultaneously capturing YFP (excitation at 518 nm and emission at 530 nm) and mScarlet-I3 (excitation at 569 nm and emission at 600 nm) differential interference contrast channels.

[1] = system: Arabidopsis WT seedlings on solid MS media; test: Stomatal development bioassay on solid media; type: in vivo; settings: for MI (%) meristemoid index / SI (%) stomatal index: solid culture, cotyledon abaxial epidermis, individual seedlings
Method: Arabidopsis accession Columbia (Col-0) was used as wild-type. […] Their genotype and transcript reduction were confirmed. The presence of transgenes/mutant alleles were confirmed by genotyping. For liquid culture with Stomidazolone (AYSJ929, compound 3), the analogs (AYSJ1059 (compound 5) and AYSJ1061 (compound 6)), degraded compound lzx103 (compound 4), and SIM3* (compound 7), all compounds were dissolved in dimethyl sulfoxide (DMSO, Molecular biology grade, Fujifilm Wako, Japan 046-21981), Col-0 seeds were sown in 96-well plates (TL5003; True Line) containing 95 μL of 1/2 MS media containing 0.5% sucrose with rotary shaking at 140 rpm under continuous light at 22 °C. Five μL of compounds were dissolved in DMSO at 10 mM and diluted with liquid 1/2 MS media to 1 mM and added on 1-day-old seedlings (final concentration, 50 μM). Seedlings were incubated for 8 days, and at day 9 seedling abaxial cotyledons were observed through confocal microscopy. For liquid culture of scrm-D_S343 and scrm-D_S423, 1/2 MS liquid media without sucrose was used. For the solid culture, 0, 20, 50 or 100 μM Stomidazolone were solidified with low-melting agarose (5805S, PrimeGelTM Agarose LMT 1-20 K, TAKARA Bio). Briefly, 1/2 MS salt, 0.5% sucrose, and 0.8% low melting agarose were mixed in water and autoclaved. After cooling the medium at around 30 °C, Stomidazolone (500x, dissolved in DMSO) was added and poured into 90 mm petri dishes (Asnol Petri Dish JP φ90 x 15 mm, 3-1491-01, AS ONE). Col-0 seeds were sown on Stomidazolone-containing 1/2 MS agarose media and grown under continuous light for 9 days.
For quantitative analysis of the abaxial leaf epidermis, confocal images were taken on the days after germination as indicated in the Figure legends. Preparation of images was done as described previously[32],[70]. For counting epidermal cell types, stomatal density, stomatal precursor cells (meristemoids), total stomata-lineage cells (stomata and meristemoids) were calculated by counting cell types in an area of 0.4 mm^2 (0.63 mm × 0.63 mm) and plotted as per mm^2. A series of Z-stack confocal images was obtained to obtain images covering the epidermis and capturing GFP/YFP signal from the reporter lines. The area and the number of epidermal cells were quantified by using FIJI-ImageJ. Statistical analyses were performed using R ver. 4.0.2. Sample sizes (n) are indicated and defined in each legend. For the multiple sample comparison, 1-way ANOVA was performed followed by a post hoc Tukey HSD test. For the two-sample comparison, Student’s T-test was performed. Graphs were generated using R ggplot2 package. For all boxplots, each box represents IQR (interquartile range), in which top, middle line, and bottom indicating 75, 50, and 25 percentiles, respectively, and the bar representing maximum to minimal values. Each magenta dot represents jittered individual data point. The datapoints that go beyond the bar are outliers, which are indicated as black dots. If the data point is greater than Q3 + 1.5*IQR (above the third quartile is greater than 1.5 times of the interquartile range) or less than Q1 − 1.5*IQR, that data point is classified as outlier. The color of Boxplot graph was based on ColorBrewer.org. The value of n, the number of each experiment or samples, the means of error bars, and how statistical significance was defined are indicated in a relevant figure legend. See Source Data for quantitative data underlying each figure.

Compound: O=C1C(c2ccccc2)=NC(NS(=O)(=O)c2ccccc2)(c2ccccc2)N1S(=O)(=O)c1ccccc1 (stereo not shown) [Stomidazolone]
- effect on heterodimerization, YFP/RFP signal ratio (in words) (SCRM-MUTE heterodimer): severely perturbs
- MI (%) meristemoid index ([1]; 20 uM): 2.39% and 0% and 2.612% and 2.336% and 2.778% and 1.339% and 0.4219% and 0.7905%
- SI (%) stomatal index ([1]; 20 uM): 22.3108% and 29.661% and 27.2388% and 24.7664% and 32.1429% and 24.5536% and 35.443% and 19.7628%
- MI (%) meristemoid index ([1]; 50 uM): 0% and 2.954% and 0.8658% and 1.852% and 0.4878% and 0.5208% and 2.991%
- SI (%) stomatal index ([1]; 50 uM): 27.027% and 21.097% and 20.3463% and 25.9259% and 27.9412% and 25.8537% and 27.6042% and 20.9402%
- MI (%) meristemoid index ([1]; 100 uM): 2.4% and 0.7812% and 3.364% and 2.326% and 0.4717% and 8.069% and 4.2623% and 3.509%
- SI (%) stomatal index ([1]; 100 uM): 20.4% and 25% and 12.844% and 16.2791% and 24.0566% and 14.9856% and 17.377% and 15.4386%
- effect on seedling growth ([1]; solid media, 100 μM (Supplementary Fig. 2d)): subtle growth retardation
- effect on stomatal differentiation (in words) ([1]; solid media, 20, 50, 100 μM (Supplementary Fig. 2a-c)): inhibited stomatal differentiation in a dose-dependent manner
- effect on seedling morphology / growth ([1]; solid media, 20 and 50 μM (Supplementary Fig. 2d)): does not impact; also recorded: does not affect growth
